Measurements published in patent US5656600A, “α-ketoamide derivatives as inhibitors of thrombosis” (Corvas International, Inc., priority 1993, dated 1997).
≈ marks a conversion by molar mass, not a printed value. Residues, ends and D or L forms follow the SMILES beside them. *: point of attachment. Pentanoyl(2-Pr) = CCCC(CCC)C(=O)*

How the values were obtained:
[1] = target: cytosol aminopeptidase; settings: Ocain et al.; cited from earlier work
[2] = target: arginyl aminopeptidase; settings: Ocain et al.; cited from earlier work
[3] = target: microsomal aminopeptidase; settings: Ocain et al.; cited from earlier work
[4] = target: α-thrombin (Homo sapiens, UniProt P00734); experiment: Amidolytic thrombin assay (inhibition constant Ki); format: biochemical; settings: chromogenic substrate Pefachrome t-PA, HBSA pH 7.5; slow-binding (kon/koff) or Dixon analysis
Protocol: The ability of the compounds of the present invention to act as inhibitors of thrombin catalytic activity in comparison to Hirulog-1 (compound 25) was assessed by determining their inhibition constant, Ki.
Enzyme activity was determined using the chromogenic substrate Pefachrome t-PA (CH3 SO2 -D-hexahydrotyrosine-glycyl-L-arginine-p-nitroaniline, obtained from Pentapharm Ltd.). The substrate was reconstituted in deionized water prior to use.
Ki values were determined for test compounds using the following methodologies:
The assay was conducted by combining in appropriate wells of a Corning microtiter plate, 50 μL of HBSA, 50 μL of the test compound at a specified concentration diluted in HBSA (or HBSA alone for Vo(uninhibited velocity) measurement), and 50 μL of the chromogenic substrate diluted in HBSA. At time zero, 50 μL of α-thrombin diluted in HBSA, was added to the wells yielding a final concentration of 0.25 nM in a total volume of 200 μL. Velocities of Pefachrome-tPA substrate hydrolysis which occurred over a 40 minute time period was measured by the change in absorbance at 405 nm using a Thermo Max® Kinetic Microplate Reader. […] The linear relationship between kobs and inhibitor concentration is indicative of a competitive, one step mechanism and was used to calculate kon and koff which yielded a value for Ki after taking into consideration the concentration and Km (38.5 μM) of the substrate in the assay.
The initial velocity of Pefachrome t-PA hydrolysis was measured by the change in absorbance at 405 nm using a Thermo Max® Kinetic Microplate Reader over a 2 minute period in which less than 5% of the added substrate was utilized. The relationship between the ratio of the inhibited steady-state velocity (Vs) and the uninhibited velocity (Vo) to the concentration of inhibitor [It ], was analyzed using Equation 1 developed by Morrison , J. F., Biochim. Biophys. Acta, 185:269 (1969) for inhibitors which deplete a significant amount of the total enzyme (Et) over the course of the assay (designated tight binding inhibitors):
Vs/Vo={([Et ]-[It ]-Ki*)+[([It ]+Ki*-[Et ])^2
Ki* was determined by fitting Vs/Vo verses [I] using Equation 1 by non-linear regression analysis.
The best fit of the data for both compounds was to the equation describing competitive inhibition.

[5] = target: thrombin (Homo sapiens, UniProt P00734); settings: cited from earlier work

NC(=O)C(=O)C(N)Cc1ccccc1 (stereo not drawn) [3-Amino-2-oxo-4-phenylbutanoic acid amide]
Ki [1]: 1000 nM
Ki [2]: 1500 nM
Ki [3]: 2500 nM

CCCC(CCC)C(=O)N[C@@H](CC(=O)O)C(=O)N1CCC[C@H]1C(=O)N[C@@H](CCCNC(=N)N)C(=O)N1CCC[C@H]1C(=O)NCC(=O)NCC(=O)NCC(=O)NCC(=O)N[C@@H](CC(N)=O)C(=O)NCC(=O)N[C@@H](CC(=O)O)C(=O)N[C@@H](Cc1ccccc1)C(=O)N[C@@H](CCC(=O)O)C(=O)N[C@@H](CCC(=O)O)C(=O)N[C@H](C(=O)N1CCC[C@H]1C(=O)N[C@@H](CCC(=O)O)C(=O)N[C@@H](Cc1ccc(O)cc1)C(=O)N[C@@H](CC(C)C)C(=O)O)[C@@H](C)CC [Compound 9] ({Pentanoyl(2-Pr)}-DPRPGGGGNGDFEEIPEYL-OH)
Ki [4]: 46.1 nM

CCCC(CCC)C(=O)N[C@@H](CC(=O)O)C(=O)N1CCC[C@H]1C(=O)N[C@@H](CCCNC(=N)N)C(=O)C(=O)NCC(=O)NCC(=O)NCC(=O)NCC(=O)NCC(=O)N[C@@H](CC(N)=O)C(=O)NCC(=O)N[C@@H](CC(=O)O)C(=O)N[C@@H](Cc1ccccc1)C(=O)N[C@@H](CCC(=O)O)C(=O)N[C@@H](CCC(=O)O)C(=O)N[C@H](C(=O)N1CCC[C@H]1C(=O)N[C@@H](CCC(=O)O)C(=O)N[C@@H](CCC(=O)O)C(=O)N[C@@H](Cc1ccc(O)cc1)C(=O)N[C@@H](CC(C)C)C(=O)O)[C@@H](C)CC [Compound 10]
Ki [4]: 0.04 nM

CCCC(CCC)C(=O)N[C@@H](CC(=O)O)C(=O)N1CCC[C@H]1C(=O)N[C@@H](CCCNC(=N)N)C(=O)C(=O)NCC(=O)NCC(=O)NCC(=O)NCC(=O)NCC(=O)N[C@@H](CCCNC(=N)N)C(=O)NCC(=O)N[C@@H](CC(=O)O)C(=O)N[C@@H](Cc1ccccc1)C(=O)N[C@@H](CCC(=O)O)C(=O)N[C@@H](CCC(=O)O)C(=O)N[C@H](C(=O)N1CCC[C@H]1C(=O)N[C@@H](CCC(=O)O)C(=O)N[C@@H](CCC(=O)O)C(=O)N[C@@H](Cc1ccc(O)cc1)C(=O)N[C@@H](CC(C)C)C(=O)O)[C@@H](C)CC [Compound 11]
Ki [4]: 0.0078 nM

N=C(N)NCCC[C@@H]1NC(=O)[C@@H]2CCCN2C(=O)[C@@H](NC=O)CNC(=O)/C=C/[C@H](Cc2ccc(O)cc2)NC(=O)[C@@H](Cc2ccccc2)NC(=O)C1=O [Cyclotheonamide A]
IC50 (thrombin), reported ([5]; Fusetani et al., Hagihara et al.): 0.076 µg/mL (≈ 0.104 µM)
IC50 ([5]; Fusetani et al., Hagihara et al., read-out: IC50 (thrombin), reported): 99 nM

N-acetyl--D--Phe--Pro Arg--[.psi.C(=O)--CH2 ]--CH2 --CH2 --CH2 -(C=O)--Gln--Ser--His--Asn--Asp--Gly--Asp--Phe--Glu--Glu--Ile--Pro--Glu--Glu--Tyr--Leu--Gln
Ki ([5]; literature values, read-out: Ki (thrombin), reported): 0.14 nM
